Test [1] relates to human gastric cancer cell MKN-45. The test can be described thus: In vitro anti-tumor cell activity (MTT), MKN-45. Type of test: cell-based. To be noted: MKN-45 cells, MTT, 72 h, Bliss method. The method, boiled down:
(§1)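 Cells seeded at 10^4 cells/well and grown 24 h were exposed to compounds for 72 h. Viability was read by MTT (0.5 mg/mL, 4 h) with formazan dissolved in DMSO, and IC50 was derived by the Bliss method.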

The subject of test [2] is human colon cancer cell HT-29. The test can be described thus: In vitro anti-tumor cell activity (MTT), HT-29. Type of test: cell-based. To be noted: HT-29 cells, MTT, 72 h, Bliss method. The method, boiled down: as §1
For test [3], the system named is human hepatoma carcinoma cell line SMMC-7721. The test can be described thus: In vitro anti-tumor cell activity (MTT), SMMC-7721. To be noted: SMMC-7721 cells, MTT, 72 h, Bliss method. In kind it is cell-based. The method, boiled down: as §1
The subject of test [4] is human nonsmall-cell lung cancer cell H460. Kind of test: In vitro anti-tumor cell activity (MTT), H460. The following applies: H460 cells, MTT, 72 h, Bliss method. Type of test: cell-based. The method, boiled down:
as §1

The target in test [5] is T1, c-Met kinase (His-tagged recombinant human Met (amino acids 974-end)) (Homo sapiens, UniProt P08581).
T1 construct: His-tagged recombinant human Met (amino acids 974-end); His
T1 sequence (P08581 956-1390): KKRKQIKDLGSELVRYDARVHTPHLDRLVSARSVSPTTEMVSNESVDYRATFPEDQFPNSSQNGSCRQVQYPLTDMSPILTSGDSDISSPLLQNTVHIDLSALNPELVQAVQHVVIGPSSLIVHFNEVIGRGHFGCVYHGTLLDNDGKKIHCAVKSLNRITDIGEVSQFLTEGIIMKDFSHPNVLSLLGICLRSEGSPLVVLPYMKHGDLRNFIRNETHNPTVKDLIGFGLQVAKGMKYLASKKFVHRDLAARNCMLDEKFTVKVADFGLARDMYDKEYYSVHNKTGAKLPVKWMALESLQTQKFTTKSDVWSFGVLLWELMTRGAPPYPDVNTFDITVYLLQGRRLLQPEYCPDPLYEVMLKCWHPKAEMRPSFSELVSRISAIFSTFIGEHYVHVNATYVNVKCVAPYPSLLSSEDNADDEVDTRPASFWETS
The test can be described thus: c-Met Enzyme Activity Inhibition Assay (ELISA). In kind it is biochemical. The following applies: 50 pM c-Met, 5 μM ATP, room temperature 20 min. The method, boiled down: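 Baculovirus-expressed His-tagged c-Met (974-end) at 50 pM with 5 μM ATP, 25 mM MOPS pH 7.4, MgCl2, MnCl2, vanadate, DTT, 1% DMSO, incubated 20 min at room temperature on POT-coated plate. Phosphorylated polymer detected with HRP-conjugated PY20 antibody, TMB read at 450 nm.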

We go through two substances from patent publication US8993566B2, “Quinoline compound composing 1,2,4-triazine-dione and use thereof” (Wuhan Shengyun Biopharma Co., Ltd., priority 2012, dated 2015).

Turning to “N-[3-fluoro-4-[7-methoxy-6-[3-(4-morpholinyl)propyloxy]quinolin-4-oxy]phenyl]-2-(2-fluorophenyl)-4-butyl-3,5-dioxo-2,3,4,5-tetrahydro-1,2,4-triazine-6-carboxamide [Example 29]”, the “MKN-45 IC50” value in test [1] worked out at 0.9 ng/mL. Also, the “HT-29 IC50” value in test [2] stood at 0.12 µg/mL. In test [3], the “SMMC-7721 IC50” value worked out at 0.014 µg/mL. For the same substance, the “H460 IC50” value in test [4] was 0.0056 µg/mL. In test [5], the “IC50 for inhibiting c-Met kinase” value is 0.61 µg/mL.
On the same counts, the results for “N-[3-fluoro-4-[7-methoxy-6-[3-(4-morpholinyl)propyloxy]quinolin-4-oxy]phenyl]-2-(3-trifluoromethylphenyl)-4-butyl-3,5-dicarbonyl-2,3,4,5-tetrahydro-1,2,4-triazine-6-carboxamide [Example 34]” are 13 ng/mL, 0.11 µg/mL, 0.18 µg/mL, 0.028 µg/mL and 0.017 µg/mL.
